Measurements published in patent publication US4337266A, “Cytostatic terminally bifunctional sugar alcohols process for preparing them and pharmaceutical compositions containing them” (priority 1979, dated 1982).

Key:
[1] = system: Walker intramuscular carcinosarcoma; test: Activity against Walker intramuscular carcinosarcoma; assay type: in vivo
Text: Activity against Walker intramuscular carcinosarcoma

S-180 subcutan sarcoma = test: Activity against S-180 subcutan sarcoma; assay type: in vivo; conditions: 8 × 50 mg/kg/ip
Text: |Activity against S-180 subcutan sarcoma

[2] = Toxicity tests, LD50 on mice after intraperitoneal administration; conditions: mouse, in vivo, ip
Text: LD50 values on mice after intraperitoneal administ-

| Structure (SMILES) | Antitumour activity ([1]; 1 × 50 mg/kg/ip) [%] | Antitumour activity ([1]; 1 × 100 mg/kg/ip) [%] | Antitumour activity (S-180 subcutan sarcoma) [%] | LD50 [2] [mg/kg] |
| --- | --- | --- | --- | --- |
| CO[C@H]([C@H](OC)[C@@H](O)CBr)[C@H](O)CBr [DMDBD, 1,6-dibromo-1,6-dideoxy-3,4-dimethyl dulcitol] | 80 | 99 | 90 | 700 |
| CO[C@H]([C@@H]1CO1)[C@H]1CO1 [MMDAX, 1,2-4,5-dianhydro-3-methyl-xylitol] |  | 90 | 75 | 500 |
| CO[C@H]([C@H](OC)[C@@H]1CO1)[C@H]1CO1 [DMDAD, 1,2-5,6-dianhydro-3,4-dimethyl dulcitol] | 55 | 80 | 80 | 680 |
